Assays:
[1] = system: human retinal pigmented epithelial cells (ARPE-19); experiment: CCK-8 cell growth analysis in retinal pigmented epithelial cells; type: cell-based; settings: young vs senescent retinal pigmented epithelial cells; concentration-dependent
Description: (§1) Each cell was treated in a serum-free culture solution containing 0.5 μM doxorubicin for 4 hours. After washing the cells with a serum-free culture solution, the cells were cultured for 4 days in a culture solution containing 10% FBS, and then cellular aging was confirmed by staining with senescence-associated beta galactosidase (SAβG). After each sample was dissolved in DMSO, young cells, replicative senescent cells, and premature senescent cells treated with doxorubicin were treated with 100 nM zotarolimus, 100 nM rapamycin, 100 nM ABT263, respectively. After incubation for 4 days in a 37° C., 5% CO2 incubator, the degree of cell growth was confirmed by CCK-8 analysis, the degree of cellular aging was confirmed by senescence-related beta-galactosidase (SAβG) staining, Young cells (1×10^3 cells/well) or senescent cells (2×10^3 cells/well) were dispensed into a 96-well plate, and cultured overnight in a 37° C., 5% CO2 incubator. Zotarolimus, ABT263 and rapamycin were treated at each concentration, and then incubated for 4 days in a 37° C., 5% CO2 incubator. […] Then, the absorbance was measured at 450 nm using a microplate reader. The degree of cell growth was expressed as a relative value for the absorbance of the control group treated with only DMSO as 100%. […]

[2] = system: human tubular epithelial cell (HK2); experiment: CCK-8 cell growth analysis in premature senescent HK2 cells; type: cell-based; settings: premature senescent HK2 cells by doxorubicin; 100 nM, 4 days; vs DMSO-treated group
Description: as §1

[3] = system: human umbilical vascular endothelial cells (HUVEC); experiment: LDH activity in cell culture solution of vascular endothelial cells; type: cell-based; settings: young and replicative senescent HUVEC; 4 days
Description: Cytotoxicity against young and senescent cells was investigated with a lactate dehydrogenase (LDH) activity kit (Dojindo Molecular Technologies Inc.).
Young cells (1×10^3 cells/100 μl/well) or senescent cells (2×10^3 cells/100 μl/well) were dispensed into a 96-well plate, and then cultured overnight in a 37° C., 5% CO2 incubator. Zotarolimus and ABT263 were treated at each concentration, and then incubated for 4 days in a 37° C., 5% CO2 incubator.
After transferring the cell culture solution to a 1.5 ml tube, it was centrifuged at 4° C. and 12,000 rpm. 100 μl of the supernatant was dispensed into a 96-well plate, and 100 μl of the LDH measurement solution was added to each well, followed by reaction in a CO2 incubator for 30 minutes.
50 μl of the LDH reaction stop solution was added, and absorbance was measured at 490 nm using a microplate reader. The level of LDH activity was expressed as a relative value based on the absorbance of the control group treated with only DMSO.
In order to confirm whether the decrease in cell growth caused by zotarolimus as described above was due to cell death, LDH activity was investigated in the cell culture solution.

[4] = system: peritoneal fibrosis induced by CHG; experiment: Peritoneal fibrosis induced by chlorhexidine gluconate (CHG) in mice; type: in vivo, C57BL/6J mice; settings: i.p. at 2-day intervals from 9th day; vs DMSO group
Description: Animal experiments were conducted with the approval of the Animal Experimental Ethics Committee of Yeungnam University College of Medicine (YUMC-AEC2018-033). Peritoneal fibrosis mice experiments were performed using a model of peritoneal fibrosis induced by chlorhexidine gluconate (CHG) (Yoshio Y et al., Kidney international. 2004).
From the 9th day, 2.5 μl of 10 mM zotarolimus (Zota group) or 2.5 μl of DMSO (DMSO group) was diluted in 100 μl phosphate buffer solution and intraperitoneally injected at intervals of 2 days.
As a negative control (NT group), 100 μl of a 15% ethanol phosphate buffer solution was injected intraperitoneally instead of a 0.1% CHG solution. On the 20th day, the mice were sacrificed, the peritoneal tissue was excised, and the tissue was fixed in 4% paraformaldehyde solution.
The tissue fixed in 10% formalin solution was embedded with paraffin and cut into 4 μm to prepare a tissue sample. After removing paraffin from the tissue sample, hematoxylin-eosin staining, trichrome staining, and PAS staining were performed.
The degree of fibrosis was measured by analyzing the degree of collagen staining using the i-Solution™ software program (IMT Inc., Canada) after trichrome staining and the degree of cell senescence in tissue samples was investigated by staining lipofuscin with Sudan black B (Viegas M S, et al., European journal of histochemistry: EJH. 2007). […]

SMILES: CO[C@H]1C[C@@H]2CC[C@@H](C)[C@@](O)(O2)C(=O)C(=O)N2CCCC[C@H]2C(=O)O[C@H]([C@H](C)C[C@@H]2CC[C@H](n3cnnn3)[C@H](OC)C2)CC(=O)[C@H](C)/C=C(\C)[C@@H](O)[C@@H](OC)C(=O)[C@H](C)C[C@H](C)/C=C/C=C/C=C/1C [zotarolimus]
- cell growth with increasing concentrations of zotarolimus [1]: significantly decreased in senescent cells compared to young cells
- cell growth (CCK-8) [2]: no difference in the growth
- LDH activity in the cell culture solution [3]: no difference in LDH activity
- degree of fibrosis (peritoneal) [4]: decreased
- thickness of the peritoneal mesothelial cell layer [4]: significantly reduced

Source: patent publication US20220023271A1, “COMPOSITION FOR PREVENTING OR TREATING CELLULAR SENESCENCE-RELATED DISEASES COMPRISING ZOTAROLIMUS AS ACTIVE INGREDIENT” (RESEARCH COOPERATION FOUNDATION OF YEUNGNAM UNIVERSITY, priority 2018, published 2022)
